The values that follow come from patent US20240270762A1, “PENICILLIN-BINDING PROTEIN INHIBITORS” (priority 2021, published 2024).

In brackets after ≈: the same amount, converted by molar mass.

In one assay the target is T1, A. baumannii PBP1a (Acinetobacter baumannii, UniProt A0ABX6CK30).
T1 sequence (A0ABX6CK30 1-851): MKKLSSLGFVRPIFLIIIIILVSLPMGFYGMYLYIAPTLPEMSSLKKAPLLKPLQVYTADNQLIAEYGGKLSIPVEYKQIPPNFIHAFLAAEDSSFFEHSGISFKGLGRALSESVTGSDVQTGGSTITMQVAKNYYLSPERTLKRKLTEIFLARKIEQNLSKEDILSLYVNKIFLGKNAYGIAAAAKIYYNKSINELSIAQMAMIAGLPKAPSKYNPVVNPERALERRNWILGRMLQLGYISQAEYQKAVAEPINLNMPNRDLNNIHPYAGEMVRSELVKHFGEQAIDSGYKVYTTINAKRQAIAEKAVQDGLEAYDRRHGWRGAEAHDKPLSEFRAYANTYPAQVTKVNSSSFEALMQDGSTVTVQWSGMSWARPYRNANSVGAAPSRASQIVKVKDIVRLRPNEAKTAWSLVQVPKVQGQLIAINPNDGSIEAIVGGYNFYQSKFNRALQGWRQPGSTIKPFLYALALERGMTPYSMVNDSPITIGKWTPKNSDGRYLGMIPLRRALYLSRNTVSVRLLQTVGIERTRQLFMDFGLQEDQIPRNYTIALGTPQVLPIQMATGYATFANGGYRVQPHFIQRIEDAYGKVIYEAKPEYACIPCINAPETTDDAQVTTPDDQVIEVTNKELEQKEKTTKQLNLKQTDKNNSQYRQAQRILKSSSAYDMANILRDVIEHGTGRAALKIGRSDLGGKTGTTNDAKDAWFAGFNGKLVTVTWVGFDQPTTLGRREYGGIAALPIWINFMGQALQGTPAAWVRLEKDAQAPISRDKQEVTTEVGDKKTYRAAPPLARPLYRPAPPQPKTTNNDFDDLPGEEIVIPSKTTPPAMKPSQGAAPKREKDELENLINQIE
As to the kind of experiment: Bocillin-FL competition binding via gel filtration, A. baumannii PBP1a. The note with it: competition binding assay using Bocillin-FL via gel filtration; read-out: A. baumannii PBP1a Potency. In a few lines:
(§1)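 Competitive equilibrium binding; reporter Bocillin-FL. PBP + inhibitor (titration) pre-incubated → Bocillin-FL, 15 min → gel filtration → fluorescence. EC50 from Hill fit of fraction bound vs [inhibitor].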

In another assay the target is A. baumannii PBP2 (Acinetobacter baumannii, UniProt D0C8Z9). As to the kind of experiment: Bocillin-FL competition binding via gel filtration, A. baumannii PBP2. In a few lines: as §1
A general note: SEC sorts molecules by how far they enter the pores of the column.

The next assay concerns B. pseudomallei Bp82. Kind of assay: microbe, parasite or virus in culture. The class given is cell-based. The following applies: Burkholderia pseudomallei, BP82, read-out: Minimum inhibitory concentration, B. pseudomallei Bp82.
A further assay concerns P. aeruginosa ATCC 27853. Kind of assay: microbe, parasite or virus in culture. Format: cell-based. The note with it: Pseudomonas aeruginosa, ATCC27853, read-out: Minimum inhibitory concentration, P. aeruginosa ATCC 27853.
The next assay deals with P. aeruginosa ATCC 35151. As to the kind of experiment: microbe, parasite or virus in culture. The class given is cell-based. The following applies: Pseudomonas aeruginosa, ATCC35151, read-out: Minimum inhibitory concentration, P. aeruginosa ATCC 35151.
Assay [1] has as its system P. aeruginosa (ΔmexAB-oprM). As to the kind of experiment: Broth microdilution MIC in iron-depleted CAMHB (IDM). Format: cell-based. The following applies: Pseudomonas aeruginosa, read-out: Minimum inhibitory concentration, P. aeruginosa ΔmexAB-oprM. For orientation: Dilution methods test growth across graded concentrations, often in twofold steps.
A further assay has as its system P. aeruginosa CDC-0054. As to the kind of experiment: microbe, parasite or virus in culture. Format: cell-based. The following applies: Pseudomonas aeruginosa, CDC0054, read-out: Minimum inhibitory concentration, P. aeruginosa CDC-0054.
The subject of another assay is P. aeruginosa CDC-0090. As to the kind of experiment: microbe, parasite or virus in culture. The note with it: Pseudomonas aeruginosa, CDC0090, read-out: Minimum inhibitory concentration, P. aeruginosa CDC-0090. Format: cell-based.
In a further assay the test system is P. aeruginosa CDC-0095. As to the kind of experiment: microbe, parasite or virus in culture. The class given is cell-based. The note with it: Pseudomonas aeruginosa, CDC0095, read-out: Minimum inhibitory concentration, P. aeruginosa CDC-0095.
Assay [2] has as its system B. thailandensis ATCC 700388. Kind of assay: microbe, parasite or virus in culture. The class given is cell-based. The following applies: Burkholderia thailandensis, ATCC700388, read-out: Minimum inhibitory concentration (MIC), B. thailandensis ATCC 700388.
In assay [3] the test system is B. humptydooensis ATCC BAA-2767. As to the kind of experiment: microbe, parasite or virus in culture. Format: cell-based. The following applies: Burkholderia humptydooensis, ATCCBAA2767, read-out: Minimum inhibitory concentration (MIC), B. humptydooensis ATCC BAA-2767.
For another assay, the system named is P. aeruginosa CDC-0110. Kind of assay: microbe, parasite or virus in culture. Format: cell-based. The following applies: Pseudomonas aeruginosa, CDC0110, read-out: Minimum inhibitory concentration, P. aeruginosa CDC-0110.

Chain of A. baumannii PBP2 (D0C8Z9 whole entry): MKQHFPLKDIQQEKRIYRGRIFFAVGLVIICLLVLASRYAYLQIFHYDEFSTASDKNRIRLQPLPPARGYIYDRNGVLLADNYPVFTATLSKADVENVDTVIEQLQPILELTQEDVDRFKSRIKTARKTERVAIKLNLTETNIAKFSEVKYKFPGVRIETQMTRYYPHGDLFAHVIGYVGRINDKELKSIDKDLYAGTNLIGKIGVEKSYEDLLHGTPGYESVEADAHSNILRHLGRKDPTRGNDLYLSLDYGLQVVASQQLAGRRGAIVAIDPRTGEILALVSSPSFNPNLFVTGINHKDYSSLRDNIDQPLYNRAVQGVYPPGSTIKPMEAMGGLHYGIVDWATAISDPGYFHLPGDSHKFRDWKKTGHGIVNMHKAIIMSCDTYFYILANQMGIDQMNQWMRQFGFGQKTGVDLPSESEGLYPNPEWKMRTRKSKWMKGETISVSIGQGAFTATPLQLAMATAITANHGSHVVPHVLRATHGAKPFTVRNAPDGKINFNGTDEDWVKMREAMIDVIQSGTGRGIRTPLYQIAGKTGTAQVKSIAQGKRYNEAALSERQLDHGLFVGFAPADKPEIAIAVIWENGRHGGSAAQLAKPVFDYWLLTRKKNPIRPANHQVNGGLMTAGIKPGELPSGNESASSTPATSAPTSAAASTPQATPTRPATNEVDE

Turning to `O=C(O)c1c(F)ccc2c1OB(O)[C@@H](NC(=O)[C@H](NC(=O)N1CCN(C3CCN(Cc4ccncn4)CC3)C1=O)c1cc(F)c(O)c(O)c1Cl)C2` [Example 602, (R)-3-((R)-2-(2-chloro-5-fluoro-3,4-dihydroxyphenyl)-2-(2-oxo-3-(1-(pyrimidin-4-ylmethyl)piperidin-4-yl)imidazolidine-1-carboxamido)acetamido)-7-fluoro-2-hydroxy-3,4-dihydro-2H-benzo[e][1,2]oxaborinine-8-carboxylic acid], the EC50 is less than 10 µM on A. baumannii PBP1a and 10 to 50 µM on A. baumannii PBP2. Further, the MIC (in the assay with B. pseudomallei Bp82; in the assay with P. aeruginosa ATCC 27853; in the assay with P. aeruginosa ATCC 35151; in [1]; in the assay on P. aeruginosa CDC-0054; in the assay with P. aeruginosa CDC-0090) was less than 1 µg/mL each time. The MIC is 2 to 4 µg/mL (≈ 2.74 to 5.48 µM) in the assay on P. aeruginosa CDC-0095, less than 1 µg/mL in assay [2], less than 1 µg/mL in [3] and less than 1 µg/mL in the assay on P. aeruginosa CDC-0110.

As to `O=C(O)c1c(F)ccc2c1OB(O)[C@@H](NC(=O)[C@H](NC(=O)N1CCN(C3CCN(Cc4cncc(O)c4)CC3)C1=O)c1cc(F)c(O)c(O)c1Cl)C2` (single isomer, unassigned) [Example 614], the EC50 at A. baumannii PBP1a and on A. baumannii PBP2 was 10 to 50 µM throughout. For the same molecule, the MIC with B. pseudomallei Bp82 is less than 1 µg/mL; with P. aeruginosa ATCC 27853, less than 1 µg/mL; in the assay on P. aeruginosa ATCC 35151 it was less than 1 µg/mL; in assay [1] it was less than 1 µg/mL; in the assay on P. aeruginosa CDC-0054, 2 to 4 µg/mL (≈ 2.68 to 5.37 µM); in the assay with P. aeruginosa CDC-0090 it was less than 1 µg/mL. The MIC was 2 to 4 µg/mL (≈ 2.68 to 5.37 µM) with P. aeruginosa CDC-0095, less than 1 µg/mL in [2], less than 1 µg/mL in [3] and less than 1 µg/mL in the assay with P. aeruginosa CDC-0110.

Take `NCc1cc(O)cc(CN2CCC(N3CCN(C(=O)N[C@@H](C(=O)N[C@H]4Cc5ccc(F)c(C(=O)O)c5OB4O)c4cc(F)c(O)c(O)c4Cl)C3=O)CC2)c1` (single isomer, unassigned) [Example 617]: the EC50 on A. baumannii PBP1a lay within 10 to 50 µM; on A. baumannii PBP2, 50 to 250 µM. For the same molecule, the MIC (in the assay with B. pseudomallei Bp82; in the assay on P. aeruginosa ATCC 27853; in the assay with P. aeruginosa ATCC 35151; in assay [1]; in the assay with P. aeruginosa CDC-0054; in the assay on P. aeruginosa CDC-0090) was less than 1 µg/mL each time. Besides, the MIC (with P. aeruginosa CDC-0095; in [2]; in [3]; in the assay on P. aeruginosa CDC-0110) was less than 1 µg/mL in each case.

As to `Nc1ccc(CN2CCC(N3CCN(C(=O)N[C@@H](C(=O)N[C@H]4Cc5ccc(F)c(C(=O)O)c5OB4O)c4cc(F)c(O)c(O)c4Cl)C3=O)CC2)cn1` (single isomer, unassigned) [Example 618], the EC50 on A. baumannii PBP1a and on A. baumannii PBP2 was 10 to 50 µM in each case. Besides, the MIC (in the assay on B. pseudomallei Bp82; in the assay on P. aeruginosa ATCC 27853; in the assay on P. aeruginosa ATCC 35151; in [1]; in the assay with P. aeruginosa CDC-0054; in the assay with P. aeruginosa CDC-0090) was less than 1 µg/mL throughout. The MIC with P. aeruginosa CDC-0095 is 2 to 4 µg/mL (≈ 2.69 to 5.38 µM); in assay [2], less than 1 µg/mL; in assay [3], less than 1 µg/mL; in the assay with P. aeruginosa CDC-0110 it was less than 1 µg/mL.
